Test results from publication PMC7736042, “Quinazolinones as Competitive Inhibitors of Carbonic Anhydrase-II (Human and Bovine): Synthesis, in-vitro, in-silico, Selectivity, and Kinetics Studies” (Frontiers in Chemistry, 2020).

How the values were obtained:
[1] = target: bovine carbonic anhydrase-II (bCA-II) (Bos taurus, UniProt P00921); assay: In-vitro bCA-II inhibition, spectrophotometric p-nitrophenyl acetate assay; format: biochemical; conditions: for IC50 / IC50 ± SEM: NA = Not active
Method: Each inhibitory well-consisted of 140 μL of HEPES-Tris buffer solution, 20 μL of bCA-II enzyme solution (0.1 mg/mL HEPES-Tris buffer), and 20 μL of test compound in HPLC grade DMSO (maintain 10% of the final concentration). […] Substrate p-nitrophenyl acetate (p-NPA) (0.7 mM) was prepared in HPLC grade methanol and the reaction was started by adding 20 μL to a well in a 96-well-plate. The amount of product formed was measured for 30 min continuously at 1 min intervals at 400 nm in a 96-well-plate using xMARK microplate spectrophotometer, Bio-Rad (USA). The activity of the controlled compound was taken as 100%. All experiments were carried out in triplicates of each used concentration, and results are represented as a mean of the triplicate.

[2] = target: human carbonic anhydrase-II (hCA-II) (Homo sapiens, UniProt P00918); assay: In-vitro hCA-II inhibition, spectrophotometric p-nitrophenyl acetate assay; format: biochemical; conditions: for IC50: NA = Not active; for selectivity hCA-II versus bCA-II: from in-vitro results on bCA-II and hCA-II
bCA-II = bCA-II (Bos taurus, UniProt P00921); assay: Kinetics study on bCA-II (Lineweaver-Burk, secondary replot, Dixon plot); format: biochemical, bovine
Method: (§1) To investigate the mechanism of action of these compounds, kinetics studies were performed. The kinetics studies were used to discover the type of inhibition and dissociation constant (Ki). […] From the kinetics studies, it was deduced that the compound 4d is a competitive inhibitor for both bCA-II and hCA-II. The Lineweaver-Burk plots were used for determination of the type of inhibition, in which the reciprocal of substrate concentrations was plotted against the reciprocal of the rate of the reaction to monitor the effect of the inhibitor on both Km and Vmax. […] In competitive inhibition, the Km of enzyme increased, while Vmax are not affected.
(§2) Figure 2 The mode of inhibition of bCA-II by compound 4d. […] (B) Secondary re-plot of Lineweaver–Burk plot between the slopes of each line on Lineweaver–Burk plot vs. different concentrations of compound 4d. (C) Dixon plot of reciprocal rate of reaction (velocities) vs. different concentrations of compound 4d.
(§3) The Ki values of compounds 4d for both enzymes bCA-II and hCA-II were deduced by secondary replots of Lineweaver-Burk plots by plotting the slope of each line in the Lineweaver-Burk plots against different concentrations of compound 4d (Figures 2B, 3B). The Ki values were confirmed by Dixon plot after plotting the reciprocal of the rate of reaction against different concentrations of compound 4d (Figures 2C, 3C).

hCA-II = hCA-II (Homo sapiens, UniProt P00918); assay: Kinetics study on hCA-II (Lineweaver-Burk, secondary replot, Dixon plot); format: biochemical
Method: as §1
as §2, with “3” for “2”, “hCA-II” for “bCA-II”
as §3

[3] = substrate p-nitrophenyl acetate

bovine carbonic anhydrase-II (bCA-II), sequence (P00921 whole entry): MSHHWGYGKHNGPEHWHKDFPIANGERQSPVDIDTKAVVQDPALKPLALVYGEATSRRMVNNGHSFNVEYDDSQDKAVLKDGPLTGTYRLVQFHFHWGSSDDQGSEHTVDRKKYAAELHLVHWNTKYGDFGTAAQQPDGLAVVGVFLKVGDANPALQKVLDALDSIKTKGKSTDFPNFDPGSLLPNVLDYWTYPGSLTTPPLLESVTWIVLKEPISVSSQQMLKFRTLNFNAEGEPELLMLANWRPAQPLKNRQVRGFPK
bCA-II, sequence (P00921 whole entry): as above

Cc1ccc(-c2nc3ccccc3c(=O)n2N)cc1 [Compound 4h, 3-Amino-2-(4-Methylphenyl) Quinazolin-4(3H)-one]
inhibition at 500 µM ([1]; 0.5 mM): 92.4%
IC50 [1]: 38 ± 0.62 µM
inhibition at 500 µM ([2]; hCA-II, 0.5 mM): 92.4%
IC50 ([2]; hCA-II): 53 ± 2.12 µM
melting point: 294 to 296 °C

Nn1c(-c2ccccc2)nc2ccccc2c1=O [Compound 4a, 3-Amino-2-Phenylquinazolin-4(3H)-one]
inhibition at 500 µM ([1]; 0.5 mM): 75.2%
IC50 [1]: 53.6 ± 0.85 µM
inhibition at 500 µM ([2]; hCA-II, 0.5 mM): 75.2%
IC50 ([2]; hCA-II): 59.6 ± 1.03 µM
melting point: 200 to 202 °C

Nn1c(-c2ccc(F)cc2)nc2ccccc2c1=O [Compound 4k, 3-Amino-2-(4-Fluorophenyl) Quinazolin-4(3H)-one]
inhibition at 500 µM ([1]; 0.5 mM): 76.3%
IC50 [1]: 18.3 ± 0.51 µM
inhibition at 500 µM ([2]; hCA-II, 0.5 mM): 36.2%
melting point: 176 to 178 °C

Nn1c(-c2cccc(F)c2)nc2ccccc2c1=O [Compound 4j, 3-Amino-2-(3-Fluorophenyl) Quinazolin-4(3H)-one]
inhibition at 500 µM ([1]; 0.5 mM): 78.6%
IC50 [1]: 46.6 ± 0.39 µM
inhibition at 500 µM ([2]; hCA-II, 0.5 mM): 28.1%
melting point: 164 to 165 °C

Nn1c(-c2ccccc2[N+](=O)[O-])nc2ccccc2c1=O [Compound 4c, 3-Amino-2-(2-Nitrophenyl) Quinazolin-4(3H)-one]
inhibition at 500 µM ([1]; 0.5 mM): 80.5%
IC50 [1]: 11.7 ± 0.36 µM
inhibition at 500 µM ([2]; hCA-II, 0.5 mM): 88.5%
IC50 ([2]; hCA-II): 21.1 ± 1.36 µM
melting point: 180 to 182 °C

Nn1c(-c2cccc([N+](=O)[O-])c2)nc2ccccc2c1=O [Compound 4d, 3-Amino-2-(3-Nitrophenyl) Quinazolin-4(3H)-one]
inhibition at 500 µM ([1]; 0.5 mM): 92.9%
IC50 [1]: 19.7 ± 1.02 µM
inhibition at 500 µM ([2]; hCA-II, 0.5 mM): 94.2%
IC50 ([2]; hCA-II): 21.5 ± 0.52 µM
mode of inhibition (bCA-II; Lineweaver-Burk plot): competitive
Ki (bCA-II; [3]): 13 ± 0.013 µM
mode of inhibition (hCA-II; Lineweaver-Burk plot): competitive
Ki (hCA-II; [3]): 14.25 ± 0.017 µM
melting point: 206 to 208 °C

Nn1c(-c2ccc(Br)cc2)nc2ccccc2c1=O [Compound 4g, 3-Amino-2-(4-Bromophenyl) Quinazolin-4(3H)-one]
inhibition at 500 µM ([1]; 0.5 mM): 85.3%
IC50 [1]: 33.6 ± 0.22 µM
selectivity hCA-II versus bCA-II [2]: more selective inhibitors for hCA-II
inhibition at 500 µM ([2]; hCA-II, 0.5 mM): 85.3%
IC50 ([2]; hCA-II): 14 ± 0.6 µM
melting point: 184 to 185 °C

COc1cc(-c2nc3ccccc3c(=O)n2N)cc(OC)c1OC [Compound 4p, 3-Amino-2-(3,4,5-Trimethoxyphenyl) Quinazolin-4(3H)-one]
inhibition at 500 µM ([1]; 0.5 mM): 87.3%
IC50 [1]: 26.8 ± 0.23 µM
inhibition at 500 µM ([2]; hCA-II, 0.5 mM): 27.4%

Nn1c(-c2ccccc2F)nc2ccccc2c1=O [Compound 4i, 3-Amino-2-(2-Fluorophenyl) Quinazolin-4(3H)-one]
inhibition at 500 µM ([1]; 0.5 mM): 17.6%
IC50 ± SEM [1]: inactive
inhibition at 500 µM ([2]; hCA-II, 0.5 mM): 27.8%
melting point: 169 to 170 °C

Nn1c(-c2ccc([N+](=O)[O-])cc2)nc2ccccc2c1=O [Compound 4e, 3-Amino-2-(4-nitrophenyl) quinazolin-4(3H)-one]
inhibition at 500 µM ([1]; 0.5 mM): 80.7%
IC50 [1]: 9.1 ± 0.21 µM
inhibition at 500 µM ([2]; hCA-II, 0.5 mM): 92.7%
IC50 ([2]; hCA-II): 39.9 ± 2.21 µM
melting point: 224 to 225 °C

Nn1c(-c2ccccc2Br)nc2ccccc2c1=O [Compound 4f, 3-Amino-2-(2-Bromophenyl) Quinazolin-4(3H)-one]
inhibition at 500 µM ([1]; 0.5 mM): 88.9%
IC50 [1]: 17.9 ± 0.56 µM
inhibition at 500 µM ([2]; hCA-II, 0.5 mM): 98.9%
IC50 ([2]; hCA-II): 43.5 ± 1.51 µM
melting point: 204 to 206 °C

Nn1c(-c2ccccc2Cl)nc2ccccc2c1=O [Compound 4l, 3-Amino-2-(2-Chlorophenyl) Quinazolin-4(3H)-one]
inhibition at 500 µM ([1]; 0.5 mM): 78.2%
IC50 [1]: 10.7 ± 0.82 µM
inhibition at 500 µM ([2]; hCA-II, 0.5 mM): 28.7%
melting point: 160 to 162 °C

Nn1c(-c2ccc(Cl)cc2)nc2ccccc2c1=O [Compound 4n, 3-Amino-2-(4-Chlorophenyl) Quinazolin-4(3H)-one]
inhibition at 500 µM ([1]; 0.5 mM): 54.2%
IC50 [1]: 28.2 ± 0.01 µM
inhibition at 500 µM ([2]; hCA-II, 0.5 mM): 24.3%
melting point: 165 to 166 °C

COc1ccc(-c2nc3ccccc3c(=O)n2N)cc1 [Compound 4o, 3-Amino-2-(4-Methoxyphenyl) Quinazolin-4(3H)-one]
inhibition at 500 µM ([1]; 0.5 mM): 19.9%
IC50 ± SEM [1]: inactive
selectivity hCA-II versus bCA-II [2]: more selective inhibitors for hCA-II
inhibition at 500 µM ([2]; hCA-II, 0.5 mM): 89.4%
IC50 ([2]; hCA-II): 22 ± 0.4 µM

Nn1c(-c2cccc(Cl)c2)nc2ccccc2c1=O [Compound 4m, 3-Amino-2-(3-Chlorophenyl) Quinazolin-4(3H)-one]
inhibition at 500 µM ([1]; 0.5 mM): 60%
IC50 [1]: 8.9 ± 0.31 µM
inhibition at 500 µM ([2]; hCA-II, 0.5 mM): 30.5%
melting point: 144 to 145 °C

3-Amino-2-(Napthalen-1-yl) Quinazolin-4(3H)-one [Compound 4b]
% Inhibition (0.5 mM) ([1]; 0.5 mM): 83.6%
IC50 [1]: 67.3 ± 0.42 µM
% Inhibition (0.5 mM) ([2]; hCA-II, 0.5 mM): 38.1%
